Results published in PMC3914206.

What was measured:
panel of 442 kinases [1] = biological target: T1, panel of 442 kinases (Homo sapiens, UniProt O94806); assay type: binding; conditions: Compound Concentration 10 µM
T1 construct: purchased KINOMEscan
T1 sequence (O94806 1-890): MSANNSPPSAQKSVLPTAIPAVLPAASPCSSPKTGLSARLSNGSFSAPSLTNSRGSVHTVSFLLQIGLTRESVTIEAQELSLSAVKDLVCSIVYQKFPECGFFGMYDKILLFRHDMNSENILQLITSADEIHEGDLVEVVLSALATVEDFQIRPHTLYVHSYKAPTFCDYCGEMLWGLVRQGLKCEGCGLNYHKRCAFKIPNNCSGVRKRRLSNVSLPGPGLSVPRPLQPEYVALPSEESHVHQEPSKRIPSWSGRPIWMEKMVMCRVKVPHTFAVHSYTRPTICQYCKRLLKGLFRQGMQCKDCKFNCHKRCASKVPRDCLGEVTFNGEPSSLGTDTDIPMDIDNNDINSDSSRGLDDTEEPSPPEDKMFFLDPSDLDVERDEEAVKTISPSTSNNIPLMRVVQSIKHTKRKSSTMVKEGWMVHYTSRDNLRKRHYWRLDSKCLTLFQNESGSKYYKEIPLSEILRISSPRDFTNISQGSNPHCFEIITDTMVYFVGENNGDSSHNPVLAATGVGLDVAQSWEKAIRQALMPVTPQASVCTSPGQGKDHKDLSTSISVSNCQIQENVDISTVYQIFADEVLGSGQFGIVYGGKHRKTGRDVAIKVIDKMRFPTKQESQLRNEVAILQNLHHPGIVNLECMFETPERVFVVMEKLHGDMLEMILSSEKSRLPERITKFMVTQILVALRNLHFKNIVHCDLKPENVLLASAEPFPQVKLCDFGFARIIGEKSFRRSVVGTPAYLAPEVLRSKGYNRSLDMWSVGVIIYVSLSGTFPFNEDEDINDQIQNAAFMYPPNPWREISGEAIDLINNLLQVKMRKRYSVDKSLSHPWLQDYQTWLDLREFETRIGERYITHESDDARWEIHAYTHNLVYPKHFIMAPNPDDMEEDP
Excerpt: (§1) We assessed the selectivity of members of this scaffold using the KINOMEscan methodology across a near comprehensive panel of 442 kinases [[18,27]].

panel of 442 kinases [2] = biological target: T2, panel of 442 kinases (Homo sapiens, UniProt P42684); assay type: binding; conditions: Compound Concentration 10 µM
T2 construct: purchased KINOMEscan
T2 sequence (P42684 whole entry): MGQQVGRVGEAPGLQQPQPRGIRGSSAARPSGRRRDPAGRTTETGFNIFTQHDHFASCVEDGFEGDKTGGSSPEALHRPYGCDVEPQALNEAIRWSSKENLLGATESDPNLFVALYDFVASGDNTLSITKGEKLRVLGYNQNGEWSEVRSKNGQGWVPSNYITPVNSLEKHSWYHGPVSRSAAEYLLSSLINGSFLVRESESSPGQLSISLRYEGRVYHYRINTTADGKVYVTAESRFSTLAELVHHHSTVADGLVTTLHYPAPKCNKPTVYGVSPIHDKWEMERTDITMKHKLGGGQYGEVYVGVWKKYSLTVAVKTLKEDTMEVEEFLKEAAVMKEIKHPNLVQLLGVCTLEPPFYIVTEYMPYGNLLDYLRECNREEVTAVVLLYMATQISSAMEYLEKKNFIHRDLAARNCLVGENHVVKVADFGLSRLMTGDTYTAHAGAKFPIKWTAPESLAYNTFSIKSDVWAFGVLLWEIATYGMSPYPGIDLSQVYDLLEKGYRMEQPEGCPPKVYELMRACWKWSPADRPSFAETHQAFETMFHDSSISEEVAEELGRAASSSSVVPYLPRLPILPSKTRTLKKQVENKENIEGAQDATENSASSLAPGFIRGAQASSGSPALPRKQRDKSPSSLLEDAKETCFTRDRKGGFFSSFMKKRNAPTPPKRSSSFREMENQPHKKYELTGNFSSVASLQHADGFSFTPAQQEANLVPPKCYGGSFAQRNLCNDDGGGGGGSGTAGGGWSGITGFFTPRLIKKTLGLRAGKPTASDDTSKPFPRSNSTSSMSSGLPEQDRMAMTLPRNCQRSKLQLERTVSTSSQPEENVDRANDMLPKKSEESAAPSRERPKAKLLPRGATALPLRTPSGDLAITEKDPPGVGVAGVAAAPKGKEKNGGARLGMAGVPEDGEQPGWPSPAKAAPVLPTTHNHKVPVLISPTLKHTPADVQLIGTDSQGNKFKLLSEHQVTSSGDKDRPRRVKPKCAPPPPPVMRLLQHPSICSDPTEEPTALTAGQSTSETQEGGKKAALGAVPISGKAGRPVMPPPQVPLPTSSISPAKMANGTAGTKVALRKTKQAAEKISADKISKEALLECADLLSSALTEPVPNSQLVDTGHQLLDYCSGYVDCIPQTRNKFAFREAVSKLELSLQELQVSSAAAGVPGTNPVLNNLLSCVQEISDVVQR
Excerpt: as §1

Structure (SMILES)	KINOMEscan: PRKD3 (panel of 442 kinases [1])	KINOMEscan: ABL2 (panel of 442 kinases [2])
COc1cc(C(=O)N2CCC(N3CCN(C)CC3)CC2)ccc1Nc1ncc2c(n1)N(C1CCCC1)c1ccccc1C(=O)N2C [Compound 25, 11-cyclopentyl-2-((2-methoxy-4-(4-(4-methylpiperazin-1-yl)piperidine-1-carbonyl)phenyl)amino)-5-methyl-5H-benzo[e]pyrimido[5,4-b][1,4]diazepin-6(11H)-one]	100	100
CCOc1cc(C(=O)N2CCC(N3CCN(C)CC3)CC2)ccc1Nc1ncc2c(n1)N(C1CCCC1)c1ccccc1C(=O)N2C [Compound 26]	100	100
COc1cc(C(=O)N2CCC(N3CCN(C)CC3)CC2)ccc1Nc1ncc2c(n1)N1CCc3cccc(c31)C(=O)N2C [Compound 24]	19	
COc1cc(C(=O)N2CCC(N3CCN(C)CC3)CC2)ccc1Nc1ncc2c(n1)N(C)c1ccccc1C(=O)N2C [15 (LRRK2-IN-1)]	42	97
